The values below come from patent publication USRE47047E1, “5-[(3,3,3-trifluoro-2-hydroxy-1-arylpropyl)amino]-1H-quinolin-2-ones, a process for their production and their use as anti-inflammatory agents” (ASTRAZENECA AB, priority 2007, dated 2018).

By IC50 is commonly meant the midpoint of a concentration-inhibition curve.

The test system of test [1] is IL-8 secretion in human monocyte cell line THP-1. Put plainly: Inhibition of LPS-triggered secretion of cytokine IL-8 in THP-1 cells (ELISA). It counts as cell-based. The conditions noted are these: for IC50: Homo sapiens, THP-1 cells, LPS-triggered, ELISA of supernatant, read-out: IC50(IL8); for efficacy of IL-8 inhibition: in comparison with dexamethasone as reference. As for the experimental part: The concentration of the cytokines was determined in the supernatant by means of commercially available ELISA kits.
(In general: An ELISA detects its analyte on a solid surface through an enzyme-linked reagent.)

The target in test [2] is T1, glucocorticoid receptor (GR) (Homo sapiens, UniProt P04150).
T1 construct: made in house; host or cells: Sf9 insect cells infected with recombinant baculovirus; cytosol preparation
T1 sequence (P04150 1-777): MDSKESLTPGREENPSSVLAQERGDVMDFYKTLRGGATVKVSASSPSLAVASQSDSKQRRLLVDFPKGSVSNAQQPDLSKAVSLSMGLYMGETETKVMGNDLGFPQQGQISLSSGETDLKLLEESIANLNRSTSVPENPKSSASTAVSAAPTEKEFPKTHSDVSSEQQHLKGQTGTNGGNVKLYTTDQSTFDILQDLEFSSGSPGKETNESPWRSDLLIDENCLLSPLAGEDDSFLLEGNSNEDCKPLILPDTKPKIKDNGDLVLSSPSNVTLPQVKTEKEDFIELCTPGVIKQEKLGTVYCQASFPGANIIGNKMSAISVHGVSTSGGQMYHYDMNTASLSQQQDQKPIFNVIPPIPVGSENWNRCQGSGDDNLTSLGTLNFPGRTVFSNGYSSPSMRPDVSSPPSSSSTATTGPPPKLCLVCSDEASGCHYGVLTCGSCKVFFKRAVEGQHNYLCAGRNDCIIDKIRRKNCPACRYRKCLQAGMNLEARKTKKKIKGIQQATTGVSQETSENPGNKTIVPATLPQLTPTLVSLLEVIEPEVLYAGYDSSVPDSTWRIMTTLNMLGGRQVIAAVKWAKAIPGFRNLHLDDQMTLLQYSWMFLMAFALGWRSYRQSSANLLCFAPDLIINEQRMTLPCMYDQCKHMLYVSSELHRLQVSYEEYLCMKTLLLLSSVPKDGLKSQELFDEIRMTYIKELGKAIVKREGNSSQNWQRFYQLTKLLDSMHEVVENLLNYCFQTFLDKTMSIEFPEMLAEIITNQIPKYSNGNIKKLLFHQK
Kind of test: Binding to the glucocorticoid receptor (GR), recombinant receptor in cytosol preparations of Sf9 cells, [3H]-dexamethasone as reference. The following applies: reference [3H]-dexamethasone. From the text: The binding of the substances to the glucocorticoid receptor (GR) and other steroid hormone receptors (mineral corticoid receptor (MR), progesterone receptor (PR) and androgen receptor (AR)) is examined with the aid of recombinantly produced receptors. Cytosol preparations of Sf9 cells, which had been infected with recombinant baculoviruses, which code for the GR, are used for the binding studies. In comparison to reference substance [^3H]-dexamethasone, the substances show a high to very high affinity to GR.

Regarding `COc1c(F)cc(Cl)cc1C(Nc1cc(F)cc2[nH]c(=O)ccc12)C(O)(CO)C(F)(F)F` (stereo not drawn) [Example 8, 5-{[1-(5-Chloro-3-fluoro-2-methoxyphenyl)-3,3,3-trifluoro-2-hydroxy-2-(hydroxymethyl)-propyl]amino}-7-fluoro-1H-quinolin-2-one], in test [1], the 50% inhibitory concentration (IC50) came out at 3.1 nM and the “efficacy of IL-8 inhibition” value is listed as 80%.
For the compound `COc1ccc(C(Nc2cc(F)cc3[nH]c(=O)ccc23)C(O)(CO)C(F)(F)F)c(Cl)c1F` (stereo not drawn) [Example 7, 5-{[1-(2-Chloro-3-fluoro-4-methoxyphenyl)-3,3,3-trifluoro-2-hydroxy-2-(hydroxymethyl)-propyl]amino}-7-fluoro-1H-quinolin-2-one], the IC50 in test [2] was 7.1 nM. Further, in test [1], the IC50 was 0.44 nM and the “efficacy of IL-8 inhibition” value amounted to 98%.
Regarding `COc1ccc(C(Nc2cccc3[nH]c(=O)ccc23)C(O)(CSC)C(F)(F)F)c(F)c1` (stereo not drawn) [Example 1, 5-{[1-(2-Fluoro-4-methoxyphenyl)-3,3,3-trifluoro-2-hydroxy-2-([methylsulfanyl]methyl)propyl]amino}-1H-quinolin-2-one], the half-inhibitory concentration (IC50) in test [2] was found to be 6.8 nM.
On to `COCC(O)(C(Nc1cc(F)cc2[nH]c(=O)ccc12)c1ccc(OC)c(F)c1Cl)C(F)(F)F` (stereo not drawn) [Example 5, 5-{[1-(2-Chloro-3-fluoro-4-methoxyphenyl)-3,3,3-trifluoro-2-hydroxy-2-(methoxymethyl)propyl]amino}-7-fluoro-1H-quinolin-2-one], for which, in test [2], the IC50 was found to be 3.1 nM. For the same compound, in test [1], the IC50 was found to be 0.19 nM and the “efficacy of IL-8 inhibition” value came to 98%.
Taken in the same sequence, the figures for `CCSCC(O)(C(Nc1cc(F)cc2[nH]c(=O)ccc12)c1ccc(OC)c(F)c1Cl)C(F)(F)F` (stereo not drawn) [Example 4, 5-{[1-(2-Chloro-3-fluoro-4-methoxyphenyl)-2-([ethylsulfanyl]methyl)-3,3,3-trifluoro-2-hydroxypropyl]amino}-7-fluoro-1H-quinolin-2-one] were 5.7 nM, 0.61 nM and 97%.
